Reference: US20170143748A1, “ANTI-TUMOR PHARMACEUTICAL APPLICATION OF PENTACYCLIC TRITERPENE SAPONIN COMPOUNDS OF SZECHUAN MELANDIUM ROOT” (priority 2014, published 2017)
Where “and” joins values, the source holds several entries; their conditions need not be identical. Equal values may be shown once.

Experiments:
HepG2 = test: Detection of apoptosis (Annexin V-FITC/PI flow cytometry); type: cell-based, Human; settings: HepG2, 80 μg/mL, 24 hours
Protocol: Human resources hepatoma cell line HepG2 was provided by Cancer Hospital, Chinese Academy of Medical Sciences. […] Cells were passaged every 2 or 3 days, and all the experiments were carried out on exponentially growing cells.
Following the incubation of cells in the flasks with drug for 24 hours, cell suspension was harvested with 5×10^5 to 1×10^6 cells/mL, and taken with 1 mL for centrifuging for 10 min at 1000 RPM and 4° C. The supernatant was replaced carefully, added with 1 mL cold phosphate-buffered saline, gently shaken for resuspension, recentrifuged and replaced the supernatant. The cells were resuspended with 200 μl Binding Buffer, added with 10 μl Annexin V-FITC and 5 μl PI, gently shaken and reacted for 15 min at Room temperature, then added with 300 μl Binding Buffer and finally measured immediately with Flow cytometry.

HepG2 human heptoma = test: Anti-HepG2 human heptoma in BALB/c (nu/nu) nude mice; settings: for body weight of HepG2-bearing nude mice / tumor volume of HepG2-bearing nude mice: mg/kg BW: total saponins 1.5, Compound 1, combination 1 & 39, Cytoxan 40, Sc
Protocol: 70 male BALB/c (nu/nu) nude mice (18-20 g, License NO. SCXK (BJ) 2009-0017, National Institutes for Food and Drug Control.) were adaptively bred for one week, and then used in the following experiment.
Human resources hepatoma cell line HepG2 was cultured in RPMI-1640 medium containing 100 U/mL Penicillin and 100 μg/mL Streptomycin with 10% fetal bovine serum and maintained at 37° C. in a humidified atmosphere (5% CO2 and […]).
70 BALB/c (nu/nu) nude mice were adaptively bred for 1 week, HepG2 cells were inoculated subcutaneously into the back of nude mice, 1×10^7 cells per mouse. […] 3 days after inoculation, mice of every therapeutic group were all given the relevant compounds or drugs for 3 weeks, and others were given isodose physiological saline.
The body weight and the size of tumor were measured and recorded weekly. The tumor volume was calculated with the formula below:
tumor volume V=π/6×a×b^2 (a, b means the transverse and longitudinal length of tumor)
At the end of administration, mice were fastened for 8 hours, weighed the fasting body weight, dropped off eyeball to collect blood, centrifuged and collected serum for next experiment. The tumors were departed and weighed. Tumor Index and inhibition rate were calculated as below:
Tumor Index=Tumor mass (mg)/body weight of animal (g)
Inhibition rate=(Average tumor massControl group−Average tumor massadministration group)/Average tumor massControl group×100%
Mice in the model group were injected with sterile water (10 ml/kg BW), Sc. All the animals were treated at 9 am for 3 weeks.
Determination of body weights: Body weights of animals were weighed and recorded once a week.
Tumor measurement: The transverse and longitudinal lengths of tumor were measured with vernier caliper weekly.
End of the experiment: After mice being administrated for 3 weeks (21 days), the experiment was terminated.

[1] = test system: BGC823 human gastric adenocarcinoma; test: Anti-BGC823 human gastric adenocarcinoma in BALB/c (nu/nu) nude mice; type: in vivo; settings: for body weight of BGC823-bearing nude mice / tumor volume of BGC823-bearing nude mice: mg/kg BW: total saponins 1.5, Compound 1, combination 1 & 19, 5-FU 20, Sc; for body weight of BGC823-bearing nude mice: in g (unit assumed)
Protocol: Human resources gastric adenocarcinoma cell line BGC823 was cultured in the same condition as the experiment 4.
The body weight and the tumor volume were measured and recorded weekly. The tumor volume was calculated according to the formula below.
Tumors were departed and weighed. Tumor Index and inhibition rate were calculated as below: […]

Structure (SMILES): COC(=O)C1CC(O[C@H]2CC[C@]3(C)[C@H]4C=CC5[C@@H]6CC(C)(C)CC[C@]6(C(=O)OC6OC(C)C(OC(=O)/C=C/c7ccc(C)cc7)C(OC(C)=O)C6OC6CC(C)C(O)C(O)C6O)[C@H](O)C[C@@]5(C)[C@]4(C)CC[C@H]3[C@]2(C)C=O)C(OC2OC(CO)C(O)C(O)C2O)C(OC2OCC(O)C(O)C2O)C1O (some centres unmarked) [Compound (2), sinocrassuloside VII]
- early apoptosis signal (HepG2; control 1.5%): 8.5%
- number of necrotic cells (HepG2; control 2.0%): 6.6%
- body weight of HepG2-bearing nude mice (HepG2 human heptoma; 0 W): 19.50 ± 0.53
- body weight of HepG2-bearing nude mice (HepG2 human heptoma; 1 W): 21.60 ± 0.84
- tumor volume of HepG2-bearing nude mice (HepG2 human heptoma; 1 W): 564.84 ± 474.95
- body weight of HepG2-bearing nude mice (HepG2 human heptoma; 2 W): 22.40 ± 1.17
- tumor volume of HepG2-bearing nude mice (HepG2 human heptoma; 2 W): 841.36 ± 577.72
- body weight of HepG2-bearing nude mice (HepG2 human heptoma; 3 W): 22.70 ± 0.95
- tumor volume of HepG2-bearing nude mice (HepG2 human heptoma; 3 W): 911.76 ± 460.22
- Inhibition rate (HepG2 human heptoma; HepG2-bearing nude mice, after 3 weeks, from average tumor mass vs model): 87.42% and 87.32%
- body weight of BGC823-bearing nude mice ([1]; 0 W): 20.10 ± 1.10
- tumor volume of BGC823-bearing nude mice ([1]; 1 W): 796.43 ± 563.35
- tumor volume of BGC823-bearing nude mice ([1]; 2 W): 1186.34 ± 625.68
- body weight of BGC823-bearing nude mice ([1]; 2 W): 23.00 ± 0.82
- tumor volume of BGC823-bearing nude mice ([1]; 3 W): 1654.23 ± 891.57
- body weight of BGC823-bearing nude mice ([1]; 3 W): 23.40 ± 1.58
- Inhibition rate ([1]; BGC823-bearing nude mice, after 3 weeks, from average tumor mass vs model): 79.63%
